Where two headings read alike, the source gives them in different places.
Columns and labels:
Burkhordelia cepacia = type: cell-based; settings: 4 h incubation at 37° C., control 130,000, Example 10
Description: In this case, tests were run on a non-nutritive liquid carrier (buffer solution) wherein the antimicrobial agent is mixed with quantified inocula of pure bacterial cultures. After different incubation times, the material is seeded on agar plates to perform quantification assays on the number of bacterias surviving the treatment.
When the time for each assay finished, aliquots of 100 uL and decimal dilutions of each tube which were seeded on petri dishes for the direct count of colony forming units (CFU) in Mueller Hinton agar (MHA), using pour-plating or spread-plating standard methods.
During testing, the medium was stored in thermostatic bath between 45-50° C. because the seeding technique requires imbibing and integrating bacteria in the medium.

P. aeruginosa = experiment: Bactericidal test: CFU count after incubation in PBS buffer; type: cell-based, Pseudomonas aeruginosa
[1] = test system: vesicular stomatitis virus (VSV); type: cell-based; settings: Ibuprofen at 50 mM, virus incubated 60 minutes at 37° C.
[2] = test system: Rubella virus strain (MV); type: cell-based; settings: Ibuprofen at 50 mM, virus incubated 60 minutes at 37° C.
[3] = test system: BVDV bovine diarrhea virus; type: cell-based; settings: Ibuprofen at 50 mM, virus incubated 60 minutes at 37° C.
[4] = solubilised in water; cited from earlier work
[5] = test system: Herpes Simplex 1 virus (HSV); type: cell-based; settings: Ibuprofen at 50 mM, virus incubated 60 minutes at 37° C.
[6] = test system: artificial biofilm of P. aeruginosa; experiment: Antimicrobial effect on artificial biofilm (2% alginate solution); type: cell-based, Pseudomonas aeruginosa; settings: Biofilm (2% alginate) + ionic strength (1 M NaCl), 4 hours at 37° C., control 2,000,000, Example 21
Description: Work consisted of incubating bacterial populations of a known load in terms of CFU/mL with the compounds mentioned in different molar concentrations. In vitro test batteries were organized at different doses or concentrations and in 1.5 mL Eppendorf tubes without the addition of culture medium. To this purpose, a PBS 100 mM phosphate buffer was used to maintain physiological conditions throughout the period of each test at 37° C. […] Each plate was added with 5 uL of a solution of 2,3,5-metabolic dye triphenyltetrazolium of chloride (TTC) 1% to enhance the contrast of colonies. Plates were incubated in inverted position, in a culture stove for 24-48 hours at 37° C. and subsequently the direct count was done, adjusted by dilution factors and seeding to report results in terms of CFU/mL. […] Treatments lasted 4 hours at 37° C.

COc1ccc2cc([C@H](C)C(=O)O)ccc2c1 [Naproxen]
B. cepacia (UFC/mL ± 10) (Burkhordelia cepacia; Naproxen 10 mM): 125,000 UFC/mL | B. cepacia (UFC/mL ± 10) (Burkhordelia cepacia; Naproxen 25 mM): 38,000 UFC/mL | B. cepacia (UFC/mL ± 10) (Burkhordelia cepacia; Naproxen 50 mM): 31,000 UFC/mL | B. cepacia (UFC/mL ± 10) (Burkhordelia cepacia; Naproxen 100 mM): 1,300 UFC/mL

CC(C)Cc1ccc(C(C)C(=O)O)cc1 (centres unmarked) [IBU-H, PROTONATED IBUPROFEN]
P. aeruginosa (UFC/mL ± 10) (P. aeruginosa; IBU 10 mM, 4 h at 37° C., control 1,700,000, Example 4): 480,000 UFC/mL | P. aeruginosa (UFC/mL ± 10) (P. aeruginosa; IBU 20 mM, 4 h at 37° C., control 1,700,000, Example 4): 200,000 UFC/mL | P. aeruginosa (UFC/mL ± 10) (P. aeruginosa; IBU 50 mM, 4 h at 37° C., control 1,700,000, Example 4): 1000 UFC/mL | P. aeruginosa (UFC/mL ± 10) (P. aeruginosa; IBU 100 mM, 4 h at 37° C., control 1,700,000, Example 4): 10 UFC/mL

CC(C)Cc1ccc(C(C)C(=O)O)cc1 (centres unmarked) [Ibuprofen, ibuprofen]
Reduction of viral level [1]: >7.7 TCID50 mL-1 | Reduction of viral level [2]: >5.0 TCID50 mL-1 | Reduction of viral level [3]: >6.5 TCID50 mL-1 | critical micelle concentration (CMC) [4]: about 180 mM | Reduction of viral level [5]: >6.9 TCID50 mL-1

[Cl-].[Na+] [NaCl]
P. aeruginosa (UFC/mL ± 10) (P. aeruginosa; NaCl 0.01 M, 4 hours at 37° C., control 2,000,000, Example 11): 2,000,000 UFC/mL | P. aeruginosa (UFC/mL ± 10) (P. aeruginosa; NaCl 0.025 M, 4 hours at 37° C., control 2,000,000, Example 11): 2,000,000 UFC/mL | P. aeruginosa (UFC/mL ± 10) (P. aeruginosa; NaCl 0.1 M, 4 hours at 37° C., control 2,000,000, Example 11): 2,000,000 UFC/mL | P. aeruginosa (UFC/mL ± 10) (P. aeruginosa; NaCl 0.25 M, 4 hours at 37° C., control 2,000,000, Example 11): 1,800,000 UFC/mL | P. aeruginosa (UFC/mL ± 10) (P. aeruginosa; NaCl 0.5 M (line between 0.025 and 0.1), 4 hours at 37° C., control 2,000,000, Example 11): 2,000,000 UFC/mL | P. aeruginosa (UFC/mL ± 10) (P. aeruginosa; NaCl 0.5 M (line between 0.25 and 1), 4 hours at 37° C., control 2,000,000, Example 11): 1,600,000 UFC/mL | P. aeruginosa (UFC/mL ± 10) (P. aeruginosa; NaCl 1 M, 4 hours at 37° C., control 2,000,000, Example 11): 1,000,000 UFC/mL

NC[C@H]1O[C@H](O[C@H]2[C@H](O)[C@@H](O[C@H]3O[C@H](CO)[C@@H](O)[C@H](N)[C@H]3O)[C@H](N)C[C@@H]2N)[C@H](N)C[C@@H]1O [Tobramycin, tobramycin]
P. aeruginosa (UFC/mL ± 10) ([6]; 5 mM): 10 UFC/mL | P. aeruginosa (UFC/mL ± 10) ([6]; 10 mM): 10 UFC/mL | P. aeruginosa (UFC/mL ± 10) (P. aeruginosa; Tobramycin 0.25 mM with ClNa (1M), 4 h at 37° C., control 1,000,000, Example 20): 400,000 UFC/mL | P. aeruginosa (UFC/mL ± 10) (P. aeruginosa; Tobramycin 1 mM with ClNa (1M), 4 h at 37° C., control 1,000,000, Example 20): 10 UFC/mL | P. aeruginosa (UFC/mL ± 10) (P. aeruginosa; Tobramycin 1 mM, 1 hour, 37° C., control 2,000,000, Example 19): 1,000,000 UFC/mL | P. aeruginosa (UFC/mL ± 10) (P. aeruginosa; Tobramycin 1 mM, 4 hours, 37° C., control 2,000,000, Example 19): 30,000 UFC/mL | P. aeruginosa (UFC/mL ± 10) (P. aeruginosa; Tobramycin 1 mM, O.N., 37° C., control 2,000,000, Example 19): 30,000 UFC/mL | P. aeruginosa (UFC/mL ± 10) (P. aeruginosa; Tobramycin 2.5 mM, 1 hour, 37° C., control 2,000,000, Example 19): 60,000 UFC/mL | P. aeruginosa (UFC/mL ± 10) (P. aeruginosa; Tobramycin 2.5 mM, 4 hours, 37° C., control 2,000,000, Example 19): 20,000 UFC/mL | P. aeruginosa (UFC/mL ± 10) (P. aeruginosa; Tobramycin 2.5 mM, O.N., 37° C., control 2,000,000, Example 19): 10 UFC/mL | P. aeruginosa (UFC/mL ± 10) (P. aeruginosa; Tobramycin 5 mM with ClNa (1M), 4 h at 37° C., control 1,000,000, Example 20): 10 UFC/mL | P. aeruginosa (UFC/mL ± 10) (P. aeruginosa; Tobramycin 5 mM, 1 hour, 37° C., control 2,000,000, Example 19): 30,000 UFC/mL | P. aeruginosa (UFC/mL ± 10) (P. aeruginosa; Tobramycin 5 mM, 4 hours, 37° C., control 2,000,000, Example 19): 1,000 UFC/mL | P. aeruginosa (UFC/mL ± 10) (P. aeruginosa; Tobramycin 5 mM, O.N., 37° C., control 2,000,000, Example 19): 10 UFC/mL | P. aeruginosa (UFC/mL ± 10) (P. aeruginosa; Tobramycin 10 mM with ClNa (1M), 4 h at 37° C., control 1,000,000, Example 20): 10 UFC/mL | P. aeruginosa (UFC/mL ± 10) (P. aeruginosa; Tobramycin 10 mM, 1 hour, 37° C., control 2,000,000, Example 19): 1,000 UFC/mL | P. aeruginosa (UFC/mL ± 10) (P. aeruginosa; Tobramycin 10 mM, 4 hours, 37° C., control 2,000,000, Example 19): 10 UFC/mL | P. aeruginosa (UFC/mL ± 10) (P. aeruginosa; Tobramycin 10 mM, O.N., 37° C., control 2,000,000, Example 19): 10 UFC/mL

Source: patent US11925612B2, “Bactericidal and virucidal pharmaceutical composition” (Quimica Luar SRL, priority 2015, dated 2024)
